Results reported in publication PMC8002351, “Triterpenes and Phenolic Compounds from the Fungus Fuscoporia torulosa: Isolation, Structure Determination and Biological Activity” (Molecules, 2021).
Values belong to the compound of their own block, whether it stands above or below them.

Tests used:
[1] = test system: S. aureus 27,213 (methicillin and ofloxacin resistant clinical isolate); test: Minimum inhibitory concentration by microdilution method; format: cell-based; conditions: Staphylococcus aureus; broth dilution, 18 h
[2] = test system: Staphylococcus aureus ATCC 25,923; test: as above; format: cell-based; conditions: ATCC25, broth dilution, 18 h
[3] = test system: Colo 320; test: Assay for cytotoxic effect (MTT); format: cell-based, human; conditions: for cytotoxic effect (in words): Colo 320, applied concentration up to 100 μM; for IC50: resistant Colo 320 cells, MTT, 24 h
Protocol: (§1) The human colon adenocarcinoma cell lines, the Colo 205 (ATCC-CCL-222) doxorubicin-sensitive parent and Colo 320/MDR-LRP (ATCC-CCL-220.1) resistant to anticancer agents expressing ABCB1, were purchased from LGC Promochem (Teddington, UK). The cells were cultured in RPMI-1640 medium supplemented with 10% heat-inactivated fetal bovine serum (FBS), 2 mM L-glutamine, 1 mM Na-pyruvate, 100 mM Hepes, nystatin, and a penicillin–streptomycin mixture in concentrations of 100 U/L and 10 mg/L, respectively. The MRC-5 (ATCC CCL-171) human embryonic lung fibroblast cell line (LGC Promochem) was cultured in EMEM medium, supplemented with 1% nonessential amino acid (NEAA) mixture, 10% heat-inactivated FBS, 2 mM L-glutamine, 1 mM Na-pyruvate, nystatin, and a penicillin–streptomycin mixture in concentrations of 100 U/L and 10 mg/L, respectively. The cell lines were incubated in a humidified atmosphere (5% CO2, 95% air) at 37 °C.
(§2) The effects of increasing concentrations of the compounds on cell growth were tested in 96-well flat-bottomed microtiter plates. The two-fold serial dilutions of the tested compounds were made starting with 100 μM. Then, 10^4 of human colonic adenocarcinoma cells in 100 μL of the medium (RPMI-1640) were added to each well, except for the medium control wells. The adherent human embryonic lung fibroblast cell line (10^4/well) was seeded in EMEM medium in 96-well flat-bottomed microtiter plates for 4 h before the assay. The serial dilutions of the compounds were made in a separate plate starting with 100 μM, and then transferred to the plates containing the adherent corresponding cell line. Culture plates were incubated at 37 °C for 24 h; at the end of the incubation period, 20 μL of MTT (thiazolyl blue tetrazolium bromide) solution (from a 5 mg/mL stock solution) were added to each well. After incubation at 37 °C for 4 h, 100 μL of sodium dodecyl sulfate (SDS) solution (10% SDS in 0.01 M HCl) were added to each well and the plates were further incubated at 37 °C overnight. Cell growth was determined by measuring the optical density (OD) at 540 nm (ref. 630 nm) with a Multiscan EX ELISA reader (Thermo Labsystems, Cheshire, WA, USA). Inhibition of cell growth was expressed as IC50 values, defined as the inhibitory dose that reduces the growth of the cells exposed to the tested compounds by 50%. IC50 values and the SD of triplicate experiments were calculated using GraphPad Prism software version 5.00 for Windows with nonlinear regression curve fit (GraphPad Software, San Diego, CA, USA; www.graphpad.com). The statistical analysis of data was performed using GraphPad Prism software version 5.00, applying the two-tailed t-test.

[4] = test system: MRC-5; test: Assay for cytotoxic effect (MTT); format: cell-based, human; conditions: for IC50: normal MRC-5 embryonal fibroblast cells, MTT, 24 h; for cytotoxic effect (in words): MRC-5, applied concentration up to 100 μM
Protocol: as §1, §2

[5] = test system: Colo 205; test: Assay for cytotoxic effect (MTT); format: cell-based, human; conditions: for cytotoxic effect (in words): Colo 205, applied concentration up to 100 μM; for IC50: sensitive Colo 205 cells, MTT, 24 h
Protocol: as §1, §2

[6] = test system: Salmonella enterica serovar Typhimurium 14028s; test: Minimum inhibitory concentration by microdilution method; format: cell-based; conditions: broth dilution, 18 h
[7] = test system: Escherichia coli ATCC 25922; test: as above; format: cell-based; conditions: ATCC25922, broth dilution, 18 h
[8] = biological target: T1, P-glycoprotein (P-gp) (Homo sapiens, UniProt P08183); test: Rhodamine 123 accumulation assay (flow cytometry); format: cell-based; design: key to FAR (fluorescence activity ratio): FAR = (Colo320 treated/control)/(Colo205 treated/control); conditions: for FSC / SSC: Colo 320
T1 construct: Colo 320/MDR-LRP (ATCC-CCL-220.1) resistant to anticancer agents expressing ABCB1
Protocol: The cell numbers of the human colon adenocarcinoma cell lines were adjusted to 2 × 10^6 cells/mL, re-suspended in serum-free RPMI 1640 medium, and distributed in 0.5 mL aliquots into Eppendorf centrifuge tubes. The tested compounds were added at concentrations of 2 or 20 μM, and the samples were incubated for 10 min at room temperature. Tariquidar was applied as positive control at 0.2 μM. DMSO at 2% v/v was used as solvent control. Next, 10 µL (5.2 µM final concentration) of the fluorochrome and ABCB1 substrate rhodamine 123 (Sigma) were added to the samples and the cells were incubated for a further 20 min at 37 °C, washed twice, and re-suspended in 1 mL PBS for analysis. The fluorescence of the cell population was measured with a PartecCyFlow® flow cytometer (Partec, Münster, Germany). The fluorescence activity ratio was calculated as the quotient between the FL-1 of the treated/untreated resistant Colo 320 cell line over the treated/untreated sensitive Colo 205 cell line according to the following equation [31]:(1) FAR = Colo320treated/Colo320control/Colo205treated/Colo205control

[9] = test system: Colo 320; test: Checkerboard combination assay with doxorubicin; format: cell-based, human; conditions: for Fraction affected: Colo 320; for Dm (median-effect dose) in the combination: FuTo III:Doxo ratio 11:1, dose of the named component; for Dm (median-effect dose) in the combination / Dm (median-effect dose), drug alone: Colo 320, 72 h; for Dm (median-effect dose), drug alone: single drug, CompuSyn
Protocol: A checkerboard microplate method was applied to study the effect of drug interactions between the compound 8 and the chemotherapeutic drug doxorubicin. The assay was carried out on Colo 320 colon adenocarcinoma cell line. The final concentration of the compounds and doxorubicin used in the combination experiment was chosen in accordance with their cytotoxicity towards this cell line. The dilutions of doxorubicin were made in a horizontal direction for the 100 μL volume, and the dilutions of the compounds were made vertically in the microtiter plate for the 50 μL volume. Then, 6 × 10^3 of Colo 320 cells in 50 μL of the medium were added to each well, except for the medium control wells. The plates were incubated for 72 h at 37 °C in 5% CO2 atmosphere. The cell growth rate was determined after MTT staining. At the end of the incubation period, 20 μL of MTT solution (from a stock solution of 5 mg/mL) were added to each well. After incubation at 37 °C for 4 h, 100 μL of SDS solution (10% in 0.01 M HCI) were added to each well and the plates were further incubated at 37 °C overnight. OD was measured at 540 nm (ref. 630 nm) with a Multiscan EX ELISA reader. Combination index (CI) values at 50% of the growth inhibition dose (ED50) were determined using CompuSyn software (ComboSyn, Inc., Paramus, NJ, USA) to plot four to five data points at each ratio. CI values were calculated by means of the median-effect equation, according to the Chou–Talalay method, where CI < 1, CI = 1, and CI > 1 represent synergism, additive effect (or no interaction), and antagonism, respectively.

[10] = DPPH assay; conditions: 30 min; 550 nm
Protocol: A method based on the description of Miser-Salihoglu E. et al. was applied. The examination was performed on a FLUOstar Optima BMG Labtech plate-reader with 96-well microplates. The samples were measured in a DMSO environment with the volume of 150 µL per sample resulting 1 mg/mL concentration. Every well contained 50 µL (100 µM) of this base solution for the absorbance measurement (30 min; 550 nm). […] For data evaluation GraphPad Prism 6.0 software was utilized. The DPPH (2,2′-diphenyl-1-picrylhydrazyl) reagent necessary for the process was supplied by from Sigma-Aldrich Hungary.

[11] = ORAC assay; conditions: Trolox equivalent
Protocol: A method based on the description of Mielnik et al. was applied. In summary, 20 µL of the samples were used in 0.01 mg/mL concentration with a 96-well black microplate. In each well, 60 µL of AAPH (12 mM final concentration) and 120 µL of fluorescein solution (70 nM final concentration) were added. The fluorescence alteration of each sample was measured for 3 h with 1.5 min cycle intervals by a FLUOstar Optima BMG Labtech plate-reader. Trolox ((±)-6-hydroxy-2,5,7,8-tetramethyl-chromane-2-carboxylic acid) was used as a standard. Both Trolox and AAPH was supplied by Sigma-Aldrich, Hungary, while Fluorescein was provided by Fluka analytical, Japan. For data analysis, the GraphPad Prism 6.0 software was used. The results were expressed as mmol Trolox equivalent per g of dry material (mmloTE/g).

[12] = Fa 0.6829, combination FuTo III + Doxo
[13] = Fa 0.741889, combination FuTo III + Doxo
[14] = Fa 0.80679, combination FuTo III + Doxo
[15] = Fa 0.912987, combination FuTo III + Doxo

T1 sequence (P08183 whole entry): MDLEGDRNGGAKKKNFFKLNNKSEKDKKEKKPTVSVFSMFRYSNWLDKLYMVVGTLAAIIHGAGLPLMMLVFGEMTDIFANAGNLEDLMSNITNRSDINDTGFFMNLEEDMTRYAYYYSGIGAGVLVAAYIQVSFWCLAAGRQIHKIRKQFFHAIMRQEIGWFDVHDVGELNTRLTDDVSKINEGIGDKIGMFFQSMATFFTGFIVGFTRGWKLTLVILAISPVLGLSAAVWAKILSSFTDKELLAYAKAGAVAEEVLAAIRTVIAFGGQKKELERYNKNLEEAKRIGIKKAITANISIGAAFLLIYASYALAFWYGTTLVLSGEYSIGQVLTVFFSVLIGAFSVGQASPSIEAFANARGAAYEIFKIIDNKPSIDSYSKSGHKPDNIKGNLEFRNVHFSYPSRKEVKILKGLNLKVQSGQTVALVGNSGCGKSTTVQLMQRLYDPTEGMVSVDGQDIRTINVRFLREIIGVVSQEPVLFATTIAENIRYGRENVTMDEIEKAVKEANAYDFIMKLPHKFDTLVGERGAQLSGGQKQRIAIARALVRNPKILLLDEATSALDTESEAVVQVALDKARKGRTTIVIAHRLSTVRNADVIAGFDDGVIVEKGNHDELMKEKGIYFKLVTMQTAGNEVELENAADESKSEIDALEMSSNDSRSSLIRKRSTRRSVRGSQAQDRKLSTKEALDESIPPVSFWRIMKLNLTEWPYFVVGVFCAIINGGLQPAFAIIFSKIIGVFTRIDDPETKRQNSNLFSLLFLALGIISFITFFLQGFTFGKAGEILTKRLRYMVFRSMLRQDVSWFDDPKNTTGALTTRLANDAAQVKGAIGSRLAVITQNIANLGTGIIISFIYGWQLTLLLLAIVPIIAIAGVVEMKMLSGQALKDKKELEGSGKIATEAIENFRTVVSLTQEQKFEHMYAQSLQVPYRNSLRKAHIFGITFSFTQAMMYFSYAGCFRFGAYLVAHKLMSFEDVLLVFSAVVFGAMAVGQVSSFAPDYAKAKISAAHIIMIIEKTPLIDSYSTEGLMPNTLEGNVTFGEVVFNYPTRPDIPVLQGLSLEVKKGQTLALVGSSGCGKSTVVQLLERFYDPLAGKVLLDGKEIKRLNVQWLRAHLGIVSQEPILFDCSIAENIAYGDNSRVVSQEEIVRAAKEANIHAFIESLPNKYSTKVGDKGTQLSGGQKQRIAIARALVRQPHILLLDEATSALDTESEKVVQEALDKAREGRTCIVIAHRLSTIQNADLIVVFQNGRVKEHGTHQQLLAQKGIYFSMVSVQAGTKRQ

MIC [1]: > 100 µM | MIC [2]: > 100 µM | MIC [6]: > 100 µM | MIC [7]: > 100 µM | FSC ([8]; 20 μM): 2095 | SSC ([8]; 20 μM): 891 | FAR (fluorescence activity ratio) ([8]; 20 μM, Colo 320, rhodamine-123): 1.053
Compound: Cc1coc(C(=O)[C@@H](C)[C@H]2CC[C@@]3(C)C4=C(CC[C@]23C)[C@@]2(C)CC[C@@](C)(C(=O)O)[C@@H]2CC4)c1 [Compound 7, natalic acid]
cytotoxic effect (in words) [3]: did not show any significant effect | IC50 ([3]; Homo sapiens): > 100 µM | IC50 ([4]; Homo sapiens, MRC5): > 100 µM | cytotoxic effect (in words) [4]: did not show any significant effect | cytotoxic effect (in words) [5]: did not show any significant effect | IC50 ([5]; Homo sapiens): > 100 µM

Compound: ergosta-7,22-diene-3-one [Compound 8]
IC50 [3]: 8.43 ± 1.1 µM | IC50 [4]: 7.92 ± 1.42 µM | IC50 [5]: 11.7 ± 1.67 µM | Dose Reduction Index (DRI) for experimental values [9, 12]: 18.211 | Dose Reduction Index (DRI) for experimental values [9, 13]: 10.119 | Dose Reduction Index (DRI) for experimental values [9, 14]: 5.811 | Dose Reduction Index (DRI) for experimental values [9, 15]: 2.045 | Fraction affected ([9]; FuTo III alone 6.25 uM): 0.0295 | Fraction affected ([9]; FuTo III alone 12.5 uM): 0.2522 | Fraction affected ([9]; FuTo III alone 25 uM): 0.5605 | Dm (median-effect dose) in the combination [9]: 0.4671 µM | combination index (CI) at the 50% growth inhibition dose (ED50) ([9]; compound 8 combined with doxorubicin, ratio 11.2:1, Colo 320, 72 h): 0.521 ± 0.15 | Dm (median-effect dose), drug alone [9]: 21.37 µM | FSC ([8]; 2 μM): 2099 | SSC ([8]; 2 μM): 857 | FAR (fluorescence activity ratio) ([8]; 2 μM, Colo 320, rhodamine-123): 0.872 | FL-1 (mean fluorescence of the cells) ([8]; 2 μM, Colo 320, rhodamine-123): 10.100

DPPH EC50 [10]: 0.89 ± 0.02 µg/mL
Compound: O=C1O[C@H]([C@@H](O)CO)C(O)=C1O [Ascorbic acid, ascorbic acid]
ORAC Activity [11]: 6.94 ± 0.58 mmol TE/g

MIC [1]: > 100 µM | MIC [2]: > 100 µM | MIC [6]: > 100 µM | MIC [7]: > 100 µM | FSC ([8]; 20 μM): 2005 | SSC ([8]; 20 μM): 851 | FAR (fluorescence activity ratio) ([8]; 20 μM, Colo 320, rhodamine-123): 1.139
Compound: CC(C)=CC[C@H](O)[C@@H](C)[C@H]1CC[C@@]2(C)C3=C(CC[C@]12C)[C@@]1(C)CC[C@@](C)(C(=O)O)[C@@H]1CC3 [Compound 1, 22S-hydroxy-8,24-dien-3-norlanosta-28-oic acid]
cytotoxic effect (in words) [3]: did not show any significant effect | IC50 ([3]; Homo sapiens): > 100 µM | IC50 ([4]; Homo sapiens, MRC5): > 100 µM | cytotoxic effect (in words) [4]: did not show any significant effect | cytotoxic effect (in words) [5]: did not show any significant effect | IC50 ([5]; Homo sapiens): > 100 µM

Compound: COc1cccc2c1C(=O)c1c(O)c3c(c(O)c1C2=O)C[C@@](O)(C(=O)CO)C[C@@H]3O[C@H]1C[C@H](N)[C@H](O)[C@H](C)O1 [Doxorubicin, doxorubicin]
IC50 ([3]; Homo sapiens): 7.44 ± 0.2 µM | IC50 ([4]; Homo sapiens, MRC5): > 20 µM | IC50 ([5]; Homo sapiens): 2.46 ± 0.26 µM | Fraction affected ([9]; Doxo alone 0.135 uM): 0.6475 | Fraction affected ([9]; Doxo alone 0.269 uM): 0.7257 | Fraction affected ([9]; Doxo alone 0.539 uM): 0.8038 | Fraction affected ([9]; Doxo alone 1.078 uM): 0.9263 | Fraction affected ([9]; Doxo alone 4.311 uM): 0.9749 | Dose Reduction Index (DRI) for experimental values [9, 12]: 1.374 | Dose Reduction Index (DRI) for experimental values [9, 13]: 0.937 | Dose Reduction Index (DRI) for experimental values [9, 14]: 0.702 | Dose Reduction Index (DRI) for experimental values [9, 15]: 0.475 | Dm (median-effect dose) in the combination [9]: 0.04246 µM | Dm (median-effect dose), drug alone [9]: 0.08504 µM

FSC ([8]; 0.2 μM): 1945 | SSC ([8]; 0.2 μM): 837 | FAR (fluorescence activity ratio) ([8]; 0.2 μM, Colo 320, rhodamine-123): 5.533
Compound: COc1cc2c(cc1OC)CN(CCc1ccc(NC(=O)c3cc(OC)c(OC)cc3NC(=O)c3cnc4ccccc4c3)cc1)CC2 [Tariquidar, reference compound]

Compound: CC(C)=CC[C@H](O)[C@@H](C)[C@H]1CC[C@@]2(C)C3=C(CC[C@]12C)[C@@]1(C)CC[C@H](O)[C@@](C)(C(=O)O)[C@@H]1CC3 [Compound 6, senexdiolic acid]
MIC [1]: > 100 µM | MIC [2]: > 100 µM | IC50 ([3]; Homo sapiens): > 100 µM | IC50 ([4]; Homo sapiens, MRC5): > 100 µM | IC50 ([5]; Homo sapiens): > 100 µM | MIC [6]: > 100 µM | MIC [7]: > 100 µM | FSC ([8]; 20 μM): 2074 | SSC ([8]; 20 μM): 861 | FAR (fluorescence activity ratio) ([8]; 20 μM, Colo 320, rhodamine-123): 1.027
